According to US7723289B2, “PIF tetrapeptides” (BioIncept, LLC, priority 2003, dated 2010):
No end group written: not given here.

Legend:
PBMC [1] = assay: FITC-labeled PIF binding to PBMC subpopulations (flow cytometry); design: species or system human; conditions: 0.75 to 48.19 μM, 1 h room temperature
Protocol: Expression of PIF-1(15) (SEQ ID NO:1), receptor following PHA induced PBMC proliferation CD-4 T cells; CD-8 T cells; NK cell and B cells (unstimulated-top); (PHA stimulated-bottom). Flow cytometry analysis of PBMC following exposure to FITC sPIF-1(15) (SEQ ID NO:13) % expression was determined in PBMC subtypes before and after exposure to 1 ug/ml PHA for 24 hours.
(§1) Human PBMC were isolated by the Ficoll method. FITC-labeled nPIF-115 (SEQ ID NO: 1) and (FITC)-labeled scrPIF-1 (SEQ ID NO:5) and match-size irrelevant peptide (FITC)-labeled negative controls negPIF-1(15) (SEQ ID NO:11), were dissolved in PBS at concentrations ranging from 0.75 to 48.19 μM, and were incubated with 500,000 lymphocytes for 1 h at room temperature. The cells were washed 6 times with PBS and resuspended in 500 μl of the same buffer. T-cells and monocytes identification was performed in independent experiments by incubation with anti-CD3 and anti-CD14 antibody-phycoerithryn (PE) labeled. nPIF-115 (SEQ ID NO: 1) binding to PBMC was determined by flow cytometry. In addition, rosettes formed by T cell-platelets were detected by flow cytometry using anti-CD3 antibody-PE and anti-CD41a antibody-FITC (all antibodies were from Pharmingen Inc.).
Using flow cytometry fluoroscein-labeled sPIF-115 (SEQ ID NO: 13) binding to immune cells was examined on resting PBMC.

mice = assay: Intravaginal administration twice daily for seven days in mated mice; assay type: in vivo; conditions: mice that conceived; implantation sites and viable embryos unaffected
Protocol: Female mice were mated with mice from the same strain. Subsequently, on day 0 (presumed day of mating) PIF-1scr in saline solution was administered intravaginally twice daily for seven days (Dr Alan Hoberman, Argus, Inc). The dose was 800 ug/day, 150 ug/ml or saline vehicle only (5 animals in each group). Subsequently, mice were sacrificed at day 12 of presumed gestation and Caesarean-sectioned. Corpora lutea, implantation sites and live and dead embryos were recorded.

PBMC [2] = assay: PIF and analogues on release of cytokines +/- platebound mAbCD3 (Table 4); assay type: cell-based; design: IL-1β / TNFa / IL-4 / IL-5 / IL-6 / IL-10 / GM-CSM / IFN-g: unit not given here; conditions: for effect on IL6 and 8: non-stimulated PBMC
epithelial cells = assay: PIF binding to endometrial epithelial cells (MaBCD2 staining); design: species or system human; conditions: compared to non-relevant IgG
Protocol: (§2) In addition, to compare the recovery of β-3 integrin expression with PIF effects described after cultured hEEC in a free-fetal bovine serum (FBS) medium some cells were cultured again in FBS-medium. […] PIF binding to epithelial cells was also examined. Binding was examined using MaBCD2 staining.

β-3 integrin = β-3 integrin expression by human endometrial epithelial cells (flow cytometry, immunocytochemistry); assay type: cell-based; conditions: hEEC, 2-day culture, 1-500 nM
Protocol: Human endometrial tissues were digested and stromal and epithelial cells (hEEC) isolated and cultured with a fetal bovine serum (FBS)-enriched medium until confluent layers were obtained. After that the cells were cultured for two more days in a FBS free-medium followed by a further 2-day culture in the same medium containing PIF peptides (1-500 nM).
as §2

[3] = tested on: donor lymphocytes and platelets; assay type: cell-based, human; conditions: flow cytometric determination; data not shown
Source text: The PIF assay, as disclosed in U.S. Pat. No. 5,646,003 to Barnea et al., entitled “Preimplantation Factor” issued Jul. 9, 1997, and in U.S. Pat. No. 5,981,198 to Barnea et al., entitled “Preimplantation Factor” granted Nov. 9, 1999, the disclosures of which are incorporated herein by reference in their entirety, may be used to measure the response of the immune system to pregnancy specific preimplantation factors. […] Lymphocyte-platelet rosettes result from the interaction of the T cell surface protein CD2 with its ligand CD58 expressed on the platelet membrane. Anti-CD2, by binding to the CD2 antigen on the T cells, inhibits their interaction with platelets.
as §1

CD2 = CD2 expression in PBMC (flow cytometry, CD2MAb-FITC); assay type: cell-based; conditions: PBMC exposed 3 days
CD3 = CD3 expression in PBMC (flow cytometry, MAbCD3-PE); assay type: cell-based; conditions: PBMC exposed 3 days, 2-200 nM
Protocol: Fluorescent PIF peptides bind to immune cell membranes following activation. […] CD69 is expressed during activation of lymphocytes and monocytes, and is a marker of NK cells activation. CD25 is the receptor for IL-2, and a known activation marker as well. […] The expression of CD3 in PBMC was examined following exposure for 3 days to sPIF-1(15) (SEQ ID NO:13) (2-200 nM) using 20 ul MAbCD3-PE (BD).

PBMC [4] = assay: PIF-1 effects on cytokine expression in patient and control PBMC (Table 7); assay type: cell-based, human; conditions: PHA +, PIF-115 −
PBMC [5] = assay: Time-dependent cytokine secretion by PBMC (Table 3); assay type: cell-based, human; conditions: substance alone
Protocol: Detailed time dependent and multiple controls were used the secretion of several cytokines by PBMC (IL-2, IL-5, IL-8, GM-CSF, IL-4, IL-10, TNF-α, IFN-γβ, IL-1 and IL-6) were measured. […] By 4 hours, sPIF-1 blocked TNF alpha with recovery by 24 hours. Also INFgamma secretion initiated only after 48 hours. […] Effects on cytokines was already noted at 0.7 nM. Similar effects were found also with other mitogens LPS and PHA when PIF-1 was tested.

## GMRELQRSANK [negPIF-1(15), reference compound]
PBMC [1]
  labeling of T cell-platelet rosettes by FITC-labeled peptide: not labeled

## GRVDPSNKSMPKDIA [scrPIF-115, GRVDPSNKSMPKDIA]
mice
  toxic or teratogenic effects: No toxic or teratogenic effects

## MVRIK [sPIF-1(5)]
PBMC [2]; C- (platebound mAbCD3), /1
  GM-CSM: 26.8
  IFN-g: 98.2
  IL-1β: 10.7
  IL-2: 19.2
  IL-4: 16.93
  IL-5: 0
  IL-6: 221.8
  IL-8: >5000
  IL-10: 68.5
  TNFa: 142.8
PBMC [2]; C- (platebound mAbCD3), /50
  GM-CSM: 20.7
  IFN-g: 81.2
  IL-1β: 5.3
  IL-2: 20.0
  IL-4: 0
  IL-5: 0
  IL-6: 178.9
  IL-8: >5000
  IL-10: 57.2
  TNFa: 81.1
PBMC [2]; U- (no mAbCD3), /1
  GM-CSM: 0
  IFN-g: 0
  IL-1β: 0
  IL-2: 0
  IL-4: 0
  IL-5: 0
  IL-6: 28.9
  IL-8: 763.6
  IL-10: 0
  TNFa: 0
PBMC [2]; U- (no mAbCD3), /50
  GM-CSM: 0
  IFN-g: 0
  IL-1β: 0
  IL-2: 0
  IL-4: 0
  IL-5: 0
  IL-6: 37.6
  IL-8: 786.4
  IL-10: 0
  TNFa: 0
PBMC [2]; following exposure to CD3Mab, dose dependent
  effect on cytokine secretion: mild

## MVRIKPGSA [sPIF-1(9)]
PBMC [2]; C- (platebound mAbCD3), /1
  GM-CSM: 14.3
  IFN-g: 86.5
  IL-1β: 4.8
  IL-2: 26.4
  IL-4: 0
  IL-5: 0
  IL-6: 177.6
  IL-8: >5000
  IL-10: 49.0
  TNFa: 60.1
PBMC [2]; C- (platebound mAbCD3), /50
  GM-CSM: 25.3
  IFN-g: 132.1
  IL-1β: 7.8
  IL-2: 33.7
  IL-4: 18.16
  IL-5: 0
  IL-6: 249.4
  IL-8: >5000
  IL-10: 105.0
  TNFa: 160.8
PBMC [2]; U- (no mAbCD3), /1
  GM-CSM: 0
  IFN-g: 0
  IL-1β: 0
  IL-2: 0
  IL-4: 0
  IL-5: 0
  IL-6: 40.8
  IL-8: 772.46
  IL-10: 0
  TNFa: 0
PBMC [2]; U- (no mAbCD3), /50
  GM-CSM: 0
  IFN-g: 0
  IL-1β: 0
  IL-2: 13.1
  IL-4: 0
  IL-5: 0
  IL-6: 38.7
  IL-8: 1480.2
  IL-10: 0
  TNFa: 0
PBMC [2]
  effect on IL6 and 8: stimulatory effect
Epithelial cells
  binding to epithelial cells: highest binding
β-3 integrin
  increase in the expression of β-3-epithelial integrin: up to a four-fold increase
[3]
  increase in the number of rosettes in the presence of the anti-CD2 antibody: four-fold increase

## PGSA [sPIF-1(4)]
PBMC [2]; C- (platebound mAbCD3), /1
  GM-CSM: 13.7
  IFN-g: 81.3
  IL-1β: 6.0
  IL-2: 24.0
  IL-4: 0
  IL-5: 0
  IL-6: 233.6
  IL-8: >5000
  IL-10: 44.1
  TNFa: 68.3
PBMC [2]; C- (platebound mAbCD3), /50
  GM-CSM: 27.3
  IFN-g: 145.4
  IL-1β: 7.3
  IL-2: 36.2
  IL-4: 17.8
  IL-5: 8.6
  IL-6: 270.1
  IL-8: >5000
  IL-10: 82.5
  TNFa: 299.9
PBMC [2]; U- (no mAbCD3), /1
  GM-CSM: 0
  IFN-g: 0
  IL-1β: 0
  IL-2: 0
  IL-4: 0
  IL-5: 0
  IL-6: 32.9
  IL-8: 809.3
  IL-10: 0
  TNFa: 0
PBMC [2]; U- (no mAbCD3), /50
  GM-CSM: 0
  IFN-g: 0
  IL-1β: 0
  IL-2: 0
  IL-4: 0
  IL-5: 0
  IL-6: 33.4
  IL-8: 1079.9
  IL-10: 0
  TNFa: 0
PBMC [2]
  effect on IL6 and 8: stimulatory effect

## SGIVIYQYMDDRYVGSDL [sPIF-3(18)]
Epithelial cells
  binding to epithelial cells: mild

## SQAVQEHASTNMG [sPIF-2(13)]
CD2
  increase in CD2 expression: 125-160%
CD3
  increase in CD3 receptor expression: 180-230%
Epithelial cells
  binding to epithelial cells: mild
β-3 integrin
  increase in the expression of β-3-epithelial integrin: up to a four-fold increase

## phytohemmaglutinin [PHA, reference compound]
PBMC [4]; control
  IL-10: 25.72 % of total PBMC in scatter gate
  TH1/TH2: 0.68
  TNFα: 17.43 % of total PBMC in scatter gate
PBMC [4]; patient
  IL-10: 24.76 % of total PBMC in scatter gate
  TH1/TH2: 0.57
  TNFα: 14.23 % of total PBMC in scatter gate
PBMC [5]; 4 h post induction
  GM-CSF: 60.4 pg/mL
  IFN-y: 0 pg/mL
  IL-1β: 891.2 pg/mL
  IL-2: 28.7 pg/mL
  IL-4: 0 pg/mL
  IL-5: 0 pg/mL
  IL-6: 7045.0 pg/mL
  IL-8: 0 pg/mL
  IL-10: 13.3 pg/mL
  TNF-α: 18829.1 pg/mL
PBMC [5]; 24 h post induction
  GM-CSF: 60.0 pg/mL
  IFN-y: 1728.8 pg/mL
  IL-1β: 5010.5 pg/mL
  IL-2: 2800.6 pg/mL
  IL-4: 60.0 pg/mL
  IL-5: 125.0 pg/mL
  IL-6: >5200 pg/mL
  IL-8: >6330 pg/mL
  IL-10: 1411.5 pg/mL
  TNF-α: >11390 pg/mL
PBMC [5]; 48 h post induction
  GM-CSF: 0 pg/mL
  IFN-y: 0 pg/mL
  IL-1β: 0 pg/mL
  IL-2: 0 pg/mL
  IL-4: 0 pg/mL
  IL-5: 0 pg/mL
  IL-6: 0 pg/mL
  IL-8: 5634.0 pg/mL
  IL-10: 0 pg/mL
  TNF-α: 0 pg/mL
PBMC [5]; 96 h post induction
  GM-CSF: 0 pg/mL
  IFN-y: 0 pg/mL
  IL-1β: 0 pg/mL
  IL-2: 0 pg/mL
  IL-4: 0 pg/mL
  IL-5: 0 pg/mL
  IL-6: 0 pg/mL
  IL-8: >6330 pg/mL
  IL-10: 0 pg/mL
  TNF-α: 0 pg/mL
